Measurements taken from patent US20210337789A1, “Derivatives of m-Guaiacol, Their Preparation and Their Uses” (Universite de Caen Normandie, priority 2018, published 2021).
Like-named read-outs stand apart in the source and are kept apart here.

Experiments:
[1] = test system: E. coli strains presenting high levels of resistance; assay: Bacterial growth on E. coli strains presenting high levels of resistance; format: cell-based, Escherichia coli; details: for Δ DO: 0.1 mg/ml; for Effects (0 < 1 < 2 < 3): molecules at 1, 0.5 and 0.1 mg/ml, triclosan at 0.1 mg/ml
Procedure: (§1) The bacterial growth is evaluated by measuring the optical density (DO) at 600 nm using NanoDrop.
(§2) This ratio permits a classification of the molecules in 4 effect levels: • 0=no effect observed; • 1=effect observed only when the molecule is tested pure; • 2=effect observed at several concentrations, but which gradually decreases the dilutions; • 3=strong effect observed at each concentration of molecule tested.
(§3) Compounds of the invention were tested on 4 strains of E. coli, 3 strains of K. pneumoniae and 4 strains of S. aureus with the resistance profiles below.

[2] = test system: K. pneumoniae strains presenting high levels of resistance; assay: Bacterial growth on K. pneumoniae strains presenting high levels of resistance; format: cell-based, Klebsiella pneumoniae; details: for Δ DO: 0.1 mg/ml; for Effects (0 < 1 < 2 < 3): molecules at 1, 0.5 and 0.1 mg/ml, triclosan at 0.1 mg/ml
Procedure: as §1, §2, §3

[3] = test system: KB cells (epidermoid carcinoma); assay: In vitro cytotoxicity, cell proliferation test (MTS) on KB cells; format: cell-based; details: Homo sapiens, read-out: percentage of inhibition of cell growth
Procedure: The human cell strain KB (epidermoid carcinoma) was obtained from the NCI (National Cancer Institute) and cultivated in the D-MEM medium added with 10% of foetal bovine serum (Invitrogen) in the presence of penicillin, streptomycin and fungizone in flasks of […] under CO2 at 5%. The cells were deposited on tissue culture microplates with 96 wells and a density of 650 cells/well in 200 μl of medium and treated 24 hours later with compounds of the invention dissolved in DMSO at concentrations going from 0.5 nM to 10 μM using a Biomek 3000 (Beckman-Coulter) automaton. The controls received the same volume of DMSO (1% of final volume). After 72 hours of exposure, the MTS reagent (Celltiter 96Aqueous One solution, Promega) was added and incubated for 3 hours at 37° C.: the absorbance was measured at 490 nm and the results of inhibition of the cell proliferation were calculated according to the ratio [(1−(OD490treated/OD490control))×100].
Results: Cytotoxicity at 10^−5 and 10^−6M on Triplicate KB Cells, Measured after 72 Hours of Exposure.
The percentage of inhibition of cell growth with respect to the cells receiving the same quantity of DMSO is outlined in the table below.

[4] = test system: S. aureus strains presenting high levels of resistance; assay: Bacterial growth on S. aureus strains presenting high levels of resistance; format: cell-based, Staphylococcus aureus; details: for Δ DO: 0.1 mg/ml; for Effects (0 < 1 < 2 < 3): molecules at 1, 0.5 and 0.1 mg/ml, triclosan at 0.1 mg/ml
Procedure: as §1, §2, §3

[5] = test system: Micrococcus luteus reference strain; assay: Bacterial growth (optical density at 600 nm) on Micrococcus luteus reference strain; format: cell-based; design: key: 0 = no effect, 1 = pure only, 2 = several concentrations, 3 = strong at all; details: in DMSO diluted in PBS, compared with triclosan
Procedure: as §1, §2
The molecules are put in a solution in DMSO and diluted in PBS.

[6] = test system: Escherichia coli; assay: Bacterial growth screening on wild-type phenotype strain, E. coli; format: cell-based
Procedure: as §1, §2
(§4) A screening of molecules of the invention on several wild-type phenotype strains has been carried out.
(§5) The strains initially selected are: • Gram+: Streptococcus equi subsp zooepidemicus and Staphylococcus aureus • Gram−: Escherichia coli, Klebsiella pneumoniae and Stenotrophomonas maltophila.

[7] = test system: Klebsiella pneumoniae; assay: Bacterial growth screening on wild-type phenotype strain, K. pneumoniae; format: cell-based
Procedure: as §1, §2, §4, §5

[8] = test system: Staphylococcus aureus; assay: Bacterial growth screening on wild-type phenotype strain, S. aureus; format: cell-based
Procedure: as §1, §2, §4, §5

[9] = test system: Stenotrophomonas maltophila; assay: Bacterial growth screening on wild-type phenotype strain, S. maltophila; format: cell-based
Procedure: as §1, §2, §4, §5

[10] = test system: Streptococcus equi subsp zooepidemicus; assay: Bacterial growth screening on wild-type phenotype strain, S. zooepidemicus; format: cell-based
Procedure: as §1, §2, §4, §5

[11] = 10^−5 M, KB cells, triplicate, 72 hours of exposure, with respect to DMSO control
[12] = 10^−6 M, KB cells, triplicate, 72 hours of exposure, with respect to DMSO control

## Oc1cc(Cl)ccc1Oc1ccc(Cl)cc1Cl [Triclosan, reference compound]
[1]; E. coli Strain 1
  Δ DO: 1.005
  Effects (0 < 1 < 2 < 3): 3
[1]; E. coli Strain 2
  Δ DO: 1.197
  Effects (0 < 1 < 2 < 3): 3
[1]; E. coli Strain 3
  Δ DO: 0.948
  Effects (0 < 1 < 2 < 3): 3
[1]; E. coli Strain 4
  Δ DO: 1.080
  Effects (0 < 1 < 2 < 3): 3
[2]; K. pneumoniae Strain 1
  Δ DO: 0.824
  Effects (0 < 1 < 2 < 3): 3
[2]; K. pneumoniae Strain 2
  Δ DO: 0.893
  Effects (0 < 1 < 2 < 3): 3
[2]; K. pneumoniae Strain 3
  Δ DO: 1.092
  Effects (0 < 1 < 2 < 3): 3
[3]; KB, 72 h
  inhibition at 1 µM: 5 ± 12%
  inhibition at 10 µM: 78 ± 3%
[4]; S. aureus Strain 1
  Δ DO: 0.441
  Effects (0 < 1 < 2 < 3): 3
[4]; S. aureus Strain 2
  Δ DO: 0.459
  Effects (0 < 1 < 2 < 3): 3
[4]; S. aureus Strain 3
  Δ DO: 0.532
  Effects (0 < 1 < 2 < 3): 3
[4]; S. aureus Strain 4
  Δ DO: 0.490
  Effects (0 < 1 < 2 < 3): 3

## COc1cc(O)c(F)cc1Cl [sr7580]
[3]; [11]
  inhibition at 10 µM: 16 ± 4%
[3]; [12]
  inhibition at 1 µM: 5 ± 8%

## COc1cc(O)c(Cl)cc1F [sr7581]
[3]; [11]
  inhibition at 10 µM: 0%
[3]; [12]
  inhibition at 1 µM: 0%

## COc1cc(O)c(Br)cc1Br [sr7582]
[3]; KB, 72 h
  inhibition at 1 µM: 0%
  inhibition at 10 µM: 1 ± 7%

## COc1cc(O)c(Cl)cc1Br [sr7583]
[5]
  Effect level: 3
[3]; [11]
  inhibition at 10 µM: 0%
[3]; [12]
  inhibition at 1 µM: 0%
[6]
  Effect level, E. coli: 2
[7]
  Effect level, K. pneumoniae: 2

## COc1cc(O)c(I)cc1I [sr7584]
[5]
  Effect level: 2
[3]; KB, 72 h
  inhibition at 1 µM: 0%
  inhibition at 10 µM: 0%

## COc1c(Cl)cc(Cl)c(O)c1Cl [sr7586]
[3]; [11]
  inhibition at 10 µM: 0%
[3]; [12]
  inhibition at 1 µM: 6 ± 8%

## COc1c(Cl)c(O)c(Cl)c(F)c1Cl [sr7587]
[3]; [11]
  inhibition at 10 µM: 0%
[3]; [12]
  inhibition at 1 µM: 8 ± 4%

## COc1c(Cl)cc(Cl)c(O)c1C [sr7607]
[5]
  Effect level: 2
[3]; [11]
  inhibition at 10 µM: 0%
[3]; [12]
  inhibition at 1 µM: 0%

## COc1cc(O)c(Cl)c(C)c1Cl [sr7608]
[5]
  Effect level: 2
[3]; [11]
  inhibition at 10 µM: 7 ± 11%
[3]; [12]
  inhibition at 1 µM: 0%

## COc1cc(O)c(Cl)c(Br)c1 [sr7609]
[5]
  Effect level: 3
[8]
  Effect level, S. aureus: 2
[6]
  Effect level, E. coli: 2
[7]
  Effect level, K. pneumoniae: 2
[9]
  Effect level, S. maltophila: 2

## COc1cc(O)c(Cl)c(F)c1F [sr7610]
[5]
  Effect level: 2

## COc1cc(O)c(Br)c(F)c1F [sr7611]
[5]
  Effect level: 2

## COc1cc(O)c(I)c(F)c1F [sr7612]
[5]
  Effect level: 2

## COc1cc(O)c(Cl)c(Br)c1F [sr7614]
[5]
  Effect level: 3
[3]; [11]
  inhibition at 10 µM: 6 ± 4%
[3]; [12]
  inhibition at 1 µM: 0%
[8]
  Effect level, S. aureus: 2
[6]
  Effect level, E. coli: 3
[10]
  Effect level, S. zooepidemicus: 2
[7]
  Effect level, K. pneumoniae: 2
[9]
  Effect level, S. maltophila: 2

## Oc1cc(I)c(F)cc1F [sr7618]
[5]
  Effect level: 2
